The NIST ThermoML archive (doi:10.1021/je900596d)

Details: for mass density: Vibrating tube method; for vapor or sublimation pressure: Closed cell (Static) method

FC(F)=C(F)C(F)(F)F [hexafluoropropene]
Details | mass density [kg/m3]
303.36 K, 1884.5 kPa, Liquid | 1299.72
303.36 K, 1906.2 kPa, Liquid | 1300.05
303.36 K, 1950 kPa, Liquid | 1300.59
303.36 K, 1985.6 kPa, Liquid | 1301.03
303.36 K, 2016.6 kPa, Liquid | 1301.15
303.36 K, 2051.2 kPa, Liquid | 1301.63
303.36 K, 2084.4 kPa, Liquid | 1301.95
303.36 K, 2119.1 kPa, Liquid | 1302.35
303.36 K, 2170.3 kPa, Liquid | 1302.96
303.36 K, 2204.1 kPa, Liquid | 1303.24
303.36 K, 2239.2 kPa, Liquid | 1303.63
303.36 K, 2326 kPa, Liquid | 1304.46
303.36 K, 2359.9 kPa, Liquid | 1304.86
303.36 K, 2392.6 kPa, Liquid | 1305.27
303.36 K, 2427 kPa, Liquid | 1305.54
303.36 K, 2445.1 kPa, Liquid | 1305.96
303.36 K, 2496.7 kPa, Liquid | 1306.19
303.36 K, 2513.8 kPa, Liquid | 1306.54
303.36 K, 2546.9 kPa, Liquid | 1306.82
303.36 K, 2585.2 kPa, Liquid | 1307.14
303.36 K, 2621.3 kPa, Liquid | 1307.6
303.36 K, 2688.6 kPa, Liquid | 1308.11
303.36 K, 2773.2 kPa, Liquid | 1309.07
303.36 K, 2808 kPa, Liquid | 1309.41
303.36 K, 2842.3 kPa, Liquid | 1309.71
303.36 K, 2874.3 kPa, Liquid | 1310.03
303.36 K, 2907.2 kPa, Liquid | 1310.3
303.36 K, 2940.3 kPa, Liquid | 1310.77
303.36 K, 3022.9 kPa, Liquid | 1311.53
303.36 K, 3048.7 kPa, Liquid | 1311.84
303.36 K, 3100.9 kPa, Liquid | 1312.32
303.36 K, 3125.6 kPa, Liquid | 1312.63
303.36 K, 3150.3 kPa, Liquid | 1312.98
303.36 K, 3176.4 kPa, Liquid | 1313.02
303.36 K, 3201.4 kPa, Liquid | 1313.32
303.36 K, 3226.8 kPa, Liquid | 1313.58
303.36 K, 3276.7 kPa, Liquid | 1313.98
303.36 K, 3325.1 kPa, Liquid | 1314.49
303.36 K, 3349.9 kPa, Liquid | 1314.75
303.36 K, 3375.9 kPa, Liquid | 1314.91
303.36 K, 3401.4 kPa, Liquid | 1315.17
303.36 K, 3428.7 kPa, Liquid | 1315.55
303.36 K, 3457.9 kPa, Liquid | 1315.79
303.36 K, 3482.4 kPa, Liquid | 1315.97
303.36 K, 3532.9 kPa, Liquid | 1316.48
303.36 K, 3636.8 kPa, Liquid | 1317.48
303.36 K, 3692 kPa, Liquid | 1318.07
303.36 K, 3744.5 kPa, Liquid | 1318.56
303.36 K, 3799.6 kPa, Liquid | 1319.05
303.36 K, 3852.6 kPa, Liquid | 1319.41
303.36 K, 3906.9 kPa, Liquid | 1319.99
303.36 K, 3959.3 kPa, Liquid | 1320.51
303.36 K, 4068.1 kPa, Liquid | 1321.53
303.36 K, 4117.4 kPa, Liquid | 1322.06
303.36 K, 4226.8 kPa, Liquid | 1323.01
303.36 K, 4279 kPa, Liquid | 1323.53
303.36 K, 4384.9 kPa, Liquid | 1324.43
303.36 K, 4442 kPa, Liquid | 1324.86
303.36 K, 4491.1 kPa, Liquid | 1325.26
303.36 K, 4545.1 kPa, Liquid | 1325.86
303.36 K, 4652.9 kPa, Liquid | 1326.85
303.36 K, 4706.2 kPa, Liquid | 1327.25
303.36 K, 4761.9 kPa, Liquid | 1327.67
303.36 K, 4810.6 kPa, Liquid | 1328.19
303.36 K, 4861.8 kPa, Liquid | 1328.62
303.36 K, 4913.7 kPa, Liquid | 1329.12
303.36 K, 4970 kPa, Liquid | 1329.46
303.36 K, 5017 kPa, Liquid | 1329.84
303.36 K, 5088.1 kPa, Liquid | 1330.55
303.36 K, 5216.5 kPa, Liquid | 1331.6
303.36 K, 5343.2 kPa, Liquid | 1332.68
303.36 K, 5408.2 kPa, Liquid | 1333.2
303.36 K, 5478.7 kPa, Liquid | 1333.8
303.36 K, 5540.7 kPa, Liquid | 1334.24
303.36 K, 5605.9 kPa, Liquid | 1334.94
303.36 K, 5666.1 kPa, Liquid | 1335.34
303.36 K, 5731.3 kPa, Liquid | 1335.77
303.36 K, 5921.6 kPa, Liquid | 1337.37
303.36 K, 5981.8 kPa, Liquid | 1337.85
303.36 K, 6042.7 kPa, Liquid | 1338.34
303.36 K, 6104.9 kPa, Liquid | 1338.9
303.36 K, 6169.9 kPa, Liquid | 1339.47
303.36 K, 6232.2 kPa, Liquid | 1339.84
303.36 K, 6297.1 kPa, Liquid | 1340.49
303.36 K, 6362 kPa, Liquid | 1340.92
303.36 K, 6487 kPa, Liquid | 1341.93
303.36 K, 6549.6 kPa, Liquid | 1342.5
303.36 K, 6613.9 kPa, Liquid | 1342.92
303.36 K, 6678.1 kPa, Liquid | 1343.42
303.36 K, 6742 kPa, Liquid | 1343.99
303.36 K, 6802.7 kPa, Liquid | 1344.44
303.36 K, 6864.7 kPa, Liquid | 1344.88
303.36 K, 6928 kPa, Liquid | 1345.36
303.36 K, 7053.8 kPa, Liquid | 1346.25
303.36 K, 7120.4 kPa, Liquid | 1346.76
303.36 K, 7184.3 kPa, Liquid | 1347.25
303.36 K, 7245.2 kPa, Liquid | 1347.73
303.36 K, 7308.5 kPa, Liquid | 1348.26
303.36 K, 7370.8 kPa, Liquid | 1348.64
303.36 K, 7436.1 kPa, Liquid | 1349.17
303.36 K, 7499.7 kPa, Liquid | 1349.66
303.36 K, 7563.6 kPa, Liquid | 1350.15
303.36 K, 7689.6 kPa, Liquid | 1351.05
303.36 K, 7751.3 kPa, Liquid | 1351.45
303.36 K, 7812.7 kPa, Liquid | 1351.9
303.36 K, 7879.7 kPa, Liquid | 1352.39
303.36 K, 7943 kPa, Liquid | 1352.95
303.36 K, 8005.8 kPa, Liquid | 1353.4
303.36 K, 8100.6 kPa, Liquid | 1353.99
303.36 K, 8290.6 kPa, Liquid | 1355.42
303.36 K, 8481.2 kPa, Liquid | 1356.76
303.36 K, 8578.2 kPa, Liquid | 1357.54
303.36 K, 8675.5 kPa, Liquid | 1358.15
303.36 K, 8768.5 kPa, Liquid | 1358.79
303.36 K, 8868.4 kPa, Liquid | 1359.47
303.36 K, 8967.8 kPa, Liquid | 1360.24
303.36 K, 9068.6 kPa, Liquid | 1360.85
303.36 K, 9168.1 kPa, Liquid | 1361.57
303.36 K, 9265.9 kPa, Liquid | 1362.22
303.36 K, 9367 kPa, Liquid | 1362.91
303.36 K, 9568.1 kPa, Liquid | 1364.22
303.36 K, 9667.3 kPa, Liquid | 1364.9
303.36 K, 9768.6 kPa, Liquid | 1365.55
303.36 K, 9865.8 kPa, Liquid | 1366.04
303.36 K, 9961.4 kPa, Liquid | 1366.81
303.36 K, 9992.6 kPa, Liquid | 1366.98
323.21 K, 7 kPa, Fluid (supercritical or subcritical phases) | 0.29
323.21 K, 10.8 kPa, Fluid (supercritical or subcritical phases) | 0.58
323.21 K, 14.3 kPa, Fluid (supercritical or subcritical phases) | 0.86

Liquid
Details | vapor or sublimation pressure [kPa]
308.21 K | 963.4
313.21 K | 1099.9
318.22 K | 1250.6
323.2 K | 1413.5
